The results in this text go back to patent US8642644B2, “Ophthamological drugs” (Duke University, priority 2004, dated 2014).

A short description of data set [1]: Solubility in petrolatum/lanolin mixtures. Format: physicochemical.
For data set [2], the system named is intraocular pressure. The experiment in a line: Intraocular pressure lowering by ticrynafen-ribitol ester ointment in the Dutch Belted rabbit model (Example 3). It is filed as in vivo. The following applies: for Maximal pressure reduction: topical, doses at 0, 24 and 48 hours. On the procedure:
Ticrynafen-ribitol ester was formulated as an ointment in 5, 10, and 15% concentrations. The Dutch Belted rabbit model was used to test the formulation for both pressure lowering and side effects. Baseline intraocular pressures were obtained by placing one drop of proparacaine in each eye followed by pressure measurements utilizing a Pneumotonometer®. […] The second eye was used as a control with application of lanolin ointment without drug. Repeat doses were given at 24 hour intervals for a total of three doses (0, 24, and 48 hours). Intraocular pressures were recorded every 12 hours for one week. A total of twelve rabbits received the 5% ointment, eight rabbits the 10% ointment, and eight rabbits the 15% ointment. FIG. 4 presents the 10% data with statistically significant timepoints indicated by double asterisks.

Data set [3] relates to intraocular pressure (IOP). The experiment in a line: Effects on intraocular pressure (IOP) after topical administration to normotensive Dutch-belted rabbits (Example 15). It is filed as in vivo, rabbit. The following applies: for Maximum reduction of IOP (absolute) / Maximum reduction of IOP (percent): once a day for three days. The source says: In order to study the utility of the compounds in the treatment of glaucoma, their effects on intraocular pressure (IOP) were investigated following administration to normotensive rabbits.
5-O-Ribitol [2,3-dichloro-4-(thiophene-2-carbonyl)]phenoxyacetate: 10% and 15% in a lanolin base.
5-O-Xylitol 4-(2-phenylacryloyl)cinnamate: 0.3% and 0.6% mixed equimolar with cysteine in solution.
11-Hydroxy-3,6,9-trioxaundecyl 4-(2-phenylacryloyl)cinnamate: 0.3% and 0.6% mixed equimolar with cysteine in solution.
Eyedrops administered topically to male Dutch-belted rabbits (3-5 kg). IOP determinations made with pneumatonometer (Medtronic Solan, Jacksonville, Fla.) as the average of three measurements per eye at each timepoint. Prior to IOP determination and drug administration, eyes were topically anesthetized with proparacaine hydrochloride, 0.5% (Bausch and Lomb, Inc, Tampa, Fla.).
5-O-Ribitol [2,3-dichloro-4-(thiophene-2-carbonyl)]phenoxyacetate: Eyedrops containing the compound were administered once a day for three days. The contralateral eye was administered lanolin base. IOP was assessed in the morning and afternoon for seven days.
5-O-Xylitol 4-(2-phenylacryloyl)cinnamate: Eyedrops containing the compound were administered twice daily for 7 days. The contralateral eye was left untreated to serve as a control. IOP was assessed concurrently with drug administration.
5-O-{(9α,11α,15R)-15-[2-Benzo[b]thiophen-2-yl]-16,17,18,19,20-pentanor-5,6,13,14-tetrahydro-9,11,15-trihydroxyprostanoyl}xylitol: Eyedrops containing the compound were administered once daily for 7 days. No drug was given on days 8 and 9. The animals were then treated once daily on days 10 through 14. IOP was assessed concurrently with drug administration.
1-O-{(9α,11α,15R)-15-[2-Benzo[b]thiophen-2-yl]-16,17,18,19,20-pentanor-5,6,13,14-tetrahydro-9,11,15-trihydroxyprostanoyl}-11-hydroxy-3,6,9-trioxaundecane: Eyedrops containing the compound were administered once daily for 5 days. The contralateral eye was left untreated to serve as a control. IOP was assessed concurrently with drug administration.
11-Hydroxy-3,6,9-trioxaundecyl 4-(2-phenylacryloyl)cinnamate: Eyedrops containing the compound were administered twice daily for 7 days. The contralateral eye was left untreated to serve as a control. IOP was assessed concurrently with drug administration.

The test system of data set [4] is intraocular pressure. The experiment in a line: Intraocular pressure lowering by 0.004% AR101 solution in the Dutch Belted rabbit model (Example 6). It is filed as in vivo. The following applies: 0.004% solution; loading dose 3 drops day 0 and 10, one drop daily days 1-7 and 10-14; versus contralateral control eye. From the text:
The xylitol prostaglandin ester of Formula V (also called AR101) was formulated as a 0.004% solution for topical administration. The Dutch Belted Rabbit model was used to test the formulation for both pressure lowering and side effects. Baseline intraocular pressures were obtained by placing one drop of proparacaine in each eye followed by pressure measurements with a Pneumotonometer®. One eye of each rabbit received a loading dose of 3 drops 0.004% AR101 on day 0 and day 10. One drop of AR101 was given daily on days 1-7 and 10-14. No drug was given on days 8 and 9. The contralateral control eye received balanced salt solution drops without AR101. Intraocular pressure measurements were recorded every 12 hours for two weeks.

Data set [5] can be described thus: Activity against glaucoma (stated in words).
Setting [6] is: 10% in lanolin base, at 36 hours.
Setting [7] is: 15% in lanolin base, at 60 hours.
Where [8] appears, read: 0.004% in solution, once daily days 1-7 and 10-14.
[9] abbreviates: 0.004% in solution, once daily for 5 days.
Where [10] appears, read: 0.02% in solution, once daily for 5 days.
[11] abbreviates: 0.3% mixed equimolar with cysteine in solution, twice daily for 7 days.
Setting [12] is: 0.6% mixed equimolar with cysteine in solution, twice daily for 7 days.

Experimental for pig liver esterase: Since the sugar alcohol moiety imparts water-solubility to the compounds, an assay can be readily set up to determine the optimal sugar alcohol for each drug moiety based on the release rate thus: A commercially-available preparation of esterase, such as porcine liver esterase (Sigma Corp., St. Louis), is prepared at a standard concentration. The drug-sugar alcohol combination, dissolved in methanol or a methanol-water or methanol-acetonitrile combination, is added dropwise to the esterase and the rate at which the compound is released from the alcohol is determined. The analytical technique used to determine the amount of free acid will vary with the acid used, but a typical procedure would be by TLC, or reverse-phase TLC, or HPLC or by Mass Spectroscopy. One skilled in the art can readily determine the optimal analytical method for each sugar-acid pair evaluated. This assay can easily be adapted to be run in a 96-well plate format, or other high-throughput method of determining activity.

For the compound `O=C(COc1ccc(C(=O)c2cccs2)c(Cl)c1Cl)OC[C@H](O)[C@H](O)[C@H](O)CO` [Formula III, 5-O-Ribitol [2,3-dichloro-4-(thiophene-2-carbonyl)]phenoxyacetate], in data set [1], the “Solubility in petrolatum/lanolin mixtures” value is “completely soluble”. The Maximal pressure reduction in the data set with intraocular pressure [2] (5% ointment, maximum at 54 hours) is 11%; in the data set on intraocular pressure [2] (10% ointment, maximum at 36 hours), 18%; with intraocular pressure [2] (15% ointment, maximum at 60 hours), 13%. In addition, the “Reduction of intraocular pressure (IOP), in words” value with intraocular pressure [2] (Dutch-Belted white rabbits, petrolatum/lanolin ointment) is reported as “reduces intraocular pressure (IOP) in a dose-dependent fashion”. Also, the “Maximum reduction of IOP (absolute)” value in data set [3] (setting [6]) was −4.3; in data set [3] (setting [7]) it was −3.0. For the same compound, the “Maximum reduction of IOP (percent)” value in data set [3] (setting [6]) came out at 18%; in data set [3] (setting [7]), 13%.
Take `O=C(CCCCCC[C@@H]1[C@@H](CC[C@@H](O)c2cc3ccccc3s2)[C@H](O)C[C@@H]1O)OC[C@@H](O)[C@H](O)[C@@H](O)CO` [Formula V, 5-O-{(9α,11α,15R)-15-[2-Benzo[b]thiophen-2-yl]-16,17,18,19,20-pentanor-5,6,13,14-tetrahydro-9,11,15-trihydroxyprostanoyl}xylitol]: in the data set on pig liver esterase, the “Hydrolysis by pig liver esterase” value is recorded as “readily hydrolyzed”. For the same compound, the “Statistically significant pressure reductions between eyes (days)” value with intraocular pressure [4] was “Statistically significant pressure reductions between eyes were observed on days 3, 7, and 11”. Further, in data set [3] (setting [8]), the “Significant reductions of IOP from baseline (days)” value was “Significant reductions from baseline on days 2, 3, 5, 11, and 12”; the “Significant reductions of IOP from baseline and untreated control (days)” value was “Significant reductions from baseline and untreated control on days 3, 5, and 11”.
On to `O=C(O)CCCCCC[C@@H]1[C@@H](CC[C@@H](O)c2cc3ccccc3s2)[C@H](O)C[C@@H]1O` [Formula II], for which, in data set [5], the “Activity against glaucoma, in words” value is given as “strong activity against glaucoma”.
With `O=C(CCCCCC[C@@H]1[C@@H](CCC(O)c2cc3ccccc3s2)[C@H](O)C[C@@H]1O)OCCOCCOCCOCCO` (stereo partly drawn) [1-O-{(9α,11α,15R)-15-[2-Benzo[b]thiophen-2-yl]-16,17,18,19,20-pentanor-5,6,13,14-tetrahydro-9,11,15-trihydroxyprostanoyl}-11-hydroxy-3,6,9-trioxaundecane], in data set [3] (setting [9]), the “Maximum reduction from untreated control” value is −2.8 mmHg and the “Maximum reduction from untreated control (percent)” value was found to be 12%. Further, in data set [3] (setting [10]), the “Maximum reduction from untreated control” value is −3.0 mmHg and the “Maximum reduction from untreated control (percent)” value turned out to be 17%.
Regarding `C=C(C(=O)c1ccc(C=CC(=O)OCCOCCOCCOCCO)cc1)c1ccccc1` [11-Hydroxy-3,6,9-trioxaundecyl 4-(2-phenylacryloyl)cinnamate], the results for the “Maximum reduction from untreated control” value in data set [3] (setting [11]) and in data set [3] (setting [12]) were −1.7 mmHg and −1.9 mmHg, respectively. The “Maximum reduction from untreated control (percent)” value in data set [3] (setting [11]) and in data set [3] (setting [12]) was 8% in each case.
For `O=C(O)COc1ccc(C(=O)c2cccs2)c(Cl)c1Cl` [Formula IV, Ticrynafen], in data set [5], the “Activity against glaucoma, in words” value was “little or no activity”.
For the compound `C=C(C(=O)c1ccc(/C=C/C(=O)OC[C@@H](O)[C@H](O)[C@@H](O)CO)cc1)c1ccccc1` [Formula VIII, 5-O-Xylitol 4-(2-phenylacryloyl)cinnamate], the “Maximum reduction from untreated control” value in data set [3] (setting [11]) and in data set [3] (setting [12]) was −2.4 mmHg each time. Moreover, the “Maximum reduction from untreated control (percent)” value in data set [3] (setting [11]) is on record as 11%; in data set [3] (setting [12]) it was 13%.
